As a reminder, the IC50 is the concentration at which inhibition is half-maximal.

This is an account of results in ChEMBL document CHEMBL5136961, “Deglycase-activity oriented screening to identify DJ-1 inhibitors” (RSC Med Chem, 2021).

The target of this assay is T1, Parkinson disease protein 7 (Homo sapiens, UniProt Q99497).
T1 sequence (Q99497 whole entry): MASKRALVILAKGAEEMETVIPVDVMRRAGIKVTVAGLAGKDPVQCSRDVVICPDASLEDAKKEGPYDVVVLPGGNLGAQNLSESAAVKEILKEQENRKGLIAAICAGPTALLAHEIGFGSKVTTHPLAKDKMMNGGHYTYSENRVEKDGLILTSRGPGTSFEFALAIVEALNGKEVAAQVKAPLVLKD
Briefly: Inhibition of pET3a-His-tagged DJ1 (unknown origin) expressed in Escherichia coli BL21 assessed as decrease in esterase activity using DiFMUAc as substrate.
On to `O=C(O)Cc1ccc2c(c1)N(CCc1ccccc1)C(=O)C2=O`, for which the IC50 was 2350 nM.
With `O=C1/C(=C/Cl)c2cc(F)ccc2N1CCc1ccccc1`, the IC50 is 15000 nM.
For the compound `O=C(O)c1ccc2c(c1)C(=O)C(=O)N2CCc1ccccc1`, the half-inhibitory concentration (IC50) was 9790 nM.
As for `COc1ccc2c(c1)C(=O)C(=O)N2CCc1ccccc1`, the IC50 came to 2930 nM.
As to `O=C1N(CCc2ccccc2)c2ccc(F)cc2C1(Cl)Cl`, the IC50 amounted to 1700 nM.
For the compound `CC(C)(C)CCN1C(=O)C(=O)c2cc(F)ccc21`, the half-inhibitory concentration (IC50) stood at 851 nM.
As for `Cc1ccc(CN2C(=O)C(=O)c3cc(Br)cc(Br)c32)cc1`, the IC50 is 676 nM.
As for `O=C1C(=O)N(CC2(c3ccccc3)CC2)c2ccc(F)cc21`, the IC50 came out at 356 nM.
`COc1ccc(CN2C(=O)C(=O)c3cc(Br)cc(Br)c32)cc1`: the IC50 worked out at 267 nM.
The value for `O=C1C(=O)N(CCc2ccccc2)c2c(Br)cc(Br)cc21` was 62.6 nM.
The value for `O=C1C(=O)N(CCc2ccccc2)c2ccc(F)cc21` was 118 nM.
Turning to `O=C1C=C(CCc2ccccc2)c2ccccc2C1=O`, the IC50 stood at 180 nM.
In the case of `C#CCOc1cc2ccccc2cc1C(=O)NC1=CC(=O)C2OC2C1O` (stereo not drawn), the IC50 was determined as 510 nM.
The value for `COc1cc(F)cc2c1N(CCc1ccccc1)C(=O)C2=O` was 54.6 nM; that for `O=C1C(F)c2cc(F)ccc2N1CCc1ccccc1` (stereo not drawn) was 700 nM; that for `O=C1C(Cl)c2cc(F)ccc2N1CCc1ccccc1` (stereo not drawn) was 85 nM.
In the case of `O=C1C(=O)N(CCc2ccccc2)c2ccccc21`, the IC50 is 701 nM.
For `CCN1C(=O)C(=O)c2cc(F)ccc21`, the 50% inhibitory concentration (IC50) came out at 118 nM.
